Here are results for one molecule from patent US9492403B2, “Method of treating overactive bladder, not due to cancer, by administering at least one jasmonate” (Broady Health Sciences, LLC, priority 2010, dated 2016).

This assay in a line: Study in five subjects with urinary bladder dysfunction symptoms taking Jasmone once a day for 30 days. The format is in vivo, human. An excerpt: Five subjects, 4 male and 1 female agreed to participate in the study. Subjects ranged in age from 55-73 with average age being 67. All participants experienced noticeable urinary bladder dysfunction symptoms including frequency, urgency, and reduced urine flow. Subjects took from 50 to 100 micrograms of Jasmone once a day for 30 days. At two weeks approximately ½ of the subjects experienced improved bladder function. […] For example, several subjects noted that before treatment they averaged 2 night time awakenings to urinate which was reduced to 1 or 0 subsequent to taking Jasmone. Other subjects had even greater improvement from an average of 3-4 night awakenings to urinate to 1. […] In addition several male subjects reported increased flow of discharge up to 100%.

`CC/C=C\CC1=C(C)CCC1=O` [Jasmone]: the “reduction of daytime bathroom visits” value (50 to 100 micrograms once a day for 30 days) is “approximately 50%”. In addition, under “at two weeks, 50 to 100 micrograms of Jasmone once a day, five subjects aged 55-73”, the “fraction of subjects who experienced improved bladder function” value is recorded as “approximately ½”. The “subject-reported improvements in frequency, urgency, and urine flow” value (by day thirty, 50 to 100 micrograms once a day) was “all subjects reported improvements in frequency, urgency, and urine flow”. Further, the “night awakenings to urinate after treatment” value (other subjects, average of 3-4 before treatment) amounted to 1. For the same molecule, for the setting “several male subjects”, the “increased flow of discharge” value is “up to 100%”. In addition, under “several patients, from approximately 10 minutes before treatment, i.e. during extended air travel”, the “"holding time" (urgency) after treatment” value is roughly 60 min.
